Some test systems named below: DU-145 prostate; MDA-MB-231 breast; SK-MEL-28 melanoma; UO-31 renal; SK-MEL-2 melanoma; COLO 205 colon; UACC-257 melanoma; OVCAR-8 ovarian; RPMI-8226 leukemia; SF-295 CNS; NCI-H460 lung; MALME-3M melanoma; KM12 colon; UACC-62 melanoma; SW-620 colon; NCI/ADR-RES ovarian; IGROV1 ovarian; SK-OV-3 ovarian; LOX IMVI melanoma; HT29 colon.
What all share (assay): NCI-60 cell line screen, 48 h

This is an account of results in PubChem BioAssay (NCI).

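Following 48 hours of exposure in 96-well plates, responses at five concentrations were used to interpolate endpoints linearly. TGI: total growth inhibition.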 Bounds are passed on as bounds.

In the case of `Cc1cc(CN(Cc2ccccc2)Cc2nc3ccccc3[nH]2)c(O)c(CN(Cc2nc3ccccc3[nH]2)Cc2nc3ccccc3[nH]2)c1`, the TGI with DU-145 prostate is above 100 µM; in the experiment with MDA-MB-231 breast, above 71.4 µM; with SK-MEL-28 melanoma, above 100 µM; in the experiment on UO-31 renal it was 36.7 µM; in the experiment on SK-MEL-2 melanoma it was 36.1 µM; in the experiment on COLO 205 colon, above 55.1 µM. Besides, the TGI in the experiment on UACC-257 melanoma was 23.1 µM; in the experiment on OVCAR-8 ovarian it was above 100 µM; in the experiment on RPMI-8226 leukemia it was 38.4 µM; in the experiment on SF-295 CNS, above 61.6 µM; with NCI-H460 lung it was 28 µM; in the experiment with MALME-3M melanoma it was above 93.2 µM. In addition, the TGI was 30.5 µM in the experiment on KM12 colon; 18.5 µM in the experiment on UACC-62 melanoma; above 100 µM with SW-620 colon; 35.9 µM in the experiment with NCI/ADR-RES ovarian; above 93.2 µM in the experiment on IGROV1 ovarian; above 52.3 µM with SK-OV-3 ovarian. The values for the TGI in the experiment with LOX IMVI melanoma and with HT29 colon were 13.3 µM and above 69.6 µM, respectively.
`COC(=O)CCN1CCN(CCO)CC1C` (stereo not given): the TGI in the experiment on DU-145 prostate, in the experiment with MDA-MB-231 breast, in the experiment on SK-MEL-28 melanoma, in the experiment on UO-31 renal, in the experiment with SK-MEL-2 melanoma and in the experiment on COLO 205 colon was above 10 µM throughout. Besides, the TGI with UACC-257 melanoma, in the experiment with OVCAR-8 ovarian, in the experiment with RPMI-8226 leukemia, with SF-295 CNS, in the experiment on NCI-H460 lung and with MALME-3M melanoma was above 10 µM throughout. Moreover, the TGI in the experiment with KM12 colon, with UACC-62 melanoma, in the experiment on SW-620 colon, in the experiment on NCI/ADR-RES ovarian, in the experiment on IGROV1 ovarian and in the experiment with SK-OV-3 ovarian was above 10 µM in each case. Also, the TGI in the experiment on LOX IMVI melanoma and in the experiment with HT29 colon was above 10 µM throughout.
For the molecule `Cc1ccccc1C(=O)NC(O)(C(F)(F)F)C(F)(F)F`, the TGI in the experiment with DU-145 prostate, in the experiment on MDA-MB-231 breast, in the experiment on SK-MEL-28 melanoma, in the experiment with UO-31 renal, in the experiment with SK-MEL-2 melanoma and in the experiment with COLO 205 colon was above 100 µM throughout. Also, the TGI with UACC-257 melanoma, in the experiment with OVCAR-8 ovarian, in the experiment on RPMI-8226 leukemia, with SF-295 CNS, with NCI-H460 lung and in the experiment with MALME-3M melanoma was above 100 µM each time. Further, the TGI in the experiment on KM12 colon, in the experiment on SW-620 colon, in the experiment on NCI/ADR-RES ovarian, with IGROV1 ovarian, in the experiment with SK-OV-3 ovarian and in the experiment on LOX IMVI melanoma was above 100 µM in each case. This molecule also came in with a TGI in the experiment on HT29 colon above 100 µM.
Regarding `c1ccc(CNCCCNCCCCNCCCNCc2ccccc2)cc1`, the TGI is 25.4 µM in the experiment on DU-145 prostate; 22.1 µM in the experiment on MDA-MB-231 breast; 26.7 µM with SK-MEL-28 melanoma; 25.7 µM in the experiment with UO-31 renal; 31.4 µM in the experiment with SK-MEL-2 melanoma; 31.1 µM in the experiment on UACC-257 melanoma. For the same molecule, the TGI came out at 27 µM in the experiment with OVCAR-8 ovarian; 13.7 µM with RPMI-8226 leukemia; 35.2 µM with SF-295 CNS; 19.1 µM in the experiment with NCI-H460 lung; 5.01 µM in the experiment on MALME-3M melanoma; 21 µM in the experiment with KM12 colon. Moreover, the TGI with UACC-62 melanoma was 21.1 µM; with SW-620 colon, 9.13 µM; with NCI/ADR-RES ovarian, above 100 µM; in the experiment on IGROV1 ovarian, 5.58 µM; in the experiment with SK-OV-3 ovarian, 31 µM; in the experiment on LOX IMVI melanoma it was 14.2 µM. In addition, in the experiment with HT29 colon, the TGI was determined as 5.86 µM.
As to `Nc1ncnc2c1ccn2CC=C(CO)CO`, the TGI in the experiment on DU-145 prostate, with MDA-MB-231 breast, in the experiment with SK-MEL-28 melanoma, with UO-31 renal, in the experiment on SK-MEL-2 melanoma and in the experiment on UACC-257 melanoma was above 100 µM throughout. Moreover, the TGI in the experiment on OVCAR-8 ovarian, in the experiment on RPMI-8226 leukemia, in the experiment on SF-295 CNS, in the experiment with NCI-H460 lung, with MALME-3M melanoma and in the experiment on KM12 colon was above 100 µM in each case. Moreover, the TGI in the experiment on UACC-62 melanoma, in the experiment on SW-620 colon, in the experiment on NCI/ADR-RES ovarian, in the experiment with IGROV1 ovarian, in the experiment with SK-OV-3 ovarian and in the experiment with LOX IMVI melanoma was above 100 µM each time. In the experiment on HT29 colon, this molecule yielded a TGI above 100 µM.
In the case of `CCn1c(SCC(=O)NNC(=S)Nc2ccc(Cl)cc2)nc2ccccc2c1=O`, the TGI with DU-145 prostate, in the experiment with MDA-MB-231 breast, in the experiment with SK-MEL-28 melanoma, with UO-31 renal, in the experiment with SK-MEL-2 melanoma and in the experiment with COLO 205 colon was above 100 µM each time. The TGI was above 100 µM in the experiment with UACC-257 melanoma; above 100 µM with OVCAR-8 ovarian; 94.8 µM in the experiment with RPMI-8226 leukemia; above 100 µM in the experiment on SF-295 CNS; above 100 µM in the experiment on NCI-H460 lung; above 100 µM with MALME-3M melanoma. Further, the TGI with KM12 colon, in the experiment on UACC-62 melanoma, with SW-620 colon, with NCI/ADR-RES ovarian, with IGROV1 ovarian and in the experiment with SK-OV-3 ovarian was above 100 µM in each case. Besides, the TGI in the experiment with LOX IMVI melanoma is above 100 µM.
Take `COC(=O)c1ccc(-n2c(C)nc(=O)c(-c3ccccc3)c2C)cc1`: the TGI in the experiment on DU-145 prostate, with MDA-MB-231 breast, in the experiment with SK-MEL-28 melanoma, with UO-31 renal, in the experiment on SK-MEL-2 melanoma and in the experiment on COLO 205 colon was above 100 µM each time. The TGI with UACC-257 melanoma, with OVCAR-8 ovarian, with RPMI-8226 leukemia, with SF-295 CNS, with NCI-H460 lung and in the experiment with MALME-3M melanoma was above 100 µM throughout. For the same molecule, the TGI with KM12 colon, in the experiment with SW-620 colon, in the experiment with NCI/ADR-RES ovarian, in the experiment on IGROV1 ovarian, with SK-OV-3 ovarian and with LOX IMVI melanoma was above 100 µM throughout. The molecule further came in with a TGI with HT29 colon above 100 µM.
